Measurements as given in patent publication US20240247048A1 (EMORY UNIVERSITY, priority 2021, published 2024).

Legend:
KPC-Luc tumors = assay: subcutaneous KPC / KPC-Luc pancreatic tumors in C57BL/6 mice; format: in vivo, mouse
Experimental: Shown are scrambled peptide plus IgG, Ant308 plus anti-PD1, scrambled peptide plus anti-PD-1, Ant308 plus IgG, and Ant308 plus AMD3100. Tumor volume was measured with calipers. ‘Star’ (*) indicates mice euthanized either due to large tumor volume (>500 mm^3) or ulceration of the skin overlying the tumor.
This decease in tumor volume was more pronounced in combination with anti-PD1 treatment. We also examined the effect of ANT308 in combination with Iso IgG or anti-PD1 antibody had on tumor volume as measured as a percent change in volume (FIG. 8A) and in measured volume (FIG. 8B). […] Investigating this effect more completely, we observed that combination treatment with both anti-PD1 and VIP-R antagonist was able to slow tumor growth relative to control mice treated with scrambled peptide and iso-type matched IgG, with the combination showing a statistically significant improvement in the rate of tumor growth (FIG. 8D). […]
In vivo efficacy studies. […] In the KPC-Luc models, the tumor growth rate was plotted using the tumor flux measurements quantified using IVIS bioluminescent imaging. […] In experiments with subcutaneous tumors, Vernier calipers were used to measure the tumor dimensions and the tumor volume was calculated using the formula: tumor volume=½(length×width×height).

intraocular melanoma = assay: liver metastases in intraocular melanoma mouse model; format: in vivo

In the case of KPRRPYTSDYTRLRKQMAVKKYLNLILN [ANT308], the “growth of tumors compared with control mice (scrambled peptide and isotype-matched IgG)” value (KPC-Luc tumors; FIG. 9) is reported as “not statistically different”, the tumor volume (KPC-Luc tumors; day 22, 3 days after a 10-day course, FIG. 7) is reported as “reduced tumor volume” and the “growth of liver metastases” value (intraocular melanoma; 3 weeks after tumor inoculation, N=6, FIG. 36) is reported as “suppressed growth”. For the same sequence, the “size of intraocular melanoma” value (intraocular melanoma; FIG. 38) was “not affected”, the “angiogenesis of liver metastases” value (intraocular melanoma; N=10, FIG. 37) was “inhibited angiogenesis” and the “hepatic metastases in 3 weeks” value (intraocular melanoma; n=6, FIG. 34) was “decreased”.
